# Calls of active or inactive are those of the source. The rule behind the calls is not given here.
# Target: Gag-Pol polyprotein (Human immunodeficiency virus type 1 group M subtype B (isolate HXB2)) (UniProt P04585)
# Assay: concentration-response of HIV-1 RNase H blockers – biochemical, probe assessment, dose response (AID 652)
# Conditions: HIV-1 RT RNase H enzymatic assay
row,SMILES,IC50
1,O=c1/c(=C/c2ccccn2)sc2nc3ccccc3n12,14.6 µM
2,COCCn1c(SCCN2CCOCC2)nc2c1c(=O)[nH]c(=O)n2C,> 50 µM (inactive)
3,Nc1c(C(=O)NCc2cccnc2)sc(=S)n1-c1ccccc1,2.22 µM
4,Nc1c(S(=O)(=O)c2cccc(Cl)c2)c2nc3ccccc3nc2n1/N=C/c1ccc(O)c(O)c1,0.266 µM
5,S=C(Nc1ccccn1)c1ccccn1,4.96 µM
6,CCOc1cc(C2C(C#N)=C(N)SC(N)=C2C#N)ccc1OCCN1CCOCC1,31.5 µM
7,S=C(c1ccc(Cl)cc1)N1CCOCC1,4.01 µM
8,CCCCn1c(SCC(=O)OCC)nc2c1c(=O)[nH]c(=O)n2C,> 50 µM (inactive)
9,CSc1ccc(C2C(C#N)=C(N)Oc3c2ccc(=O)c2c(C)oc(C)c32)cc1 (stereo unspecified),5.81 µM
10,CC(C)Sc1nc(-c2cccs2)nc2c1c(=O)n(C)c(=O)n2C,5.42 µM
11,CCCCCCn1c(SCC(=O)OC)nc2c1c(=O)[nH]c(=O)n2C,3.11 µM
12,CN1CCN(C2=C(Cl)C(=O)N(c3ccc(Cl)c(Cl)c3)C2=O)CC1,27.1 µM
13,O=S(=O)(/N=S1/CC=CCN1S(=O)(=O)c1ccccc1)c1ccccc1 (stereo unspecified),4.33 µM
14,COc1ccc(-n2nc3cc(C)c(NC(=O)CC(C)C)cc3n2)cc1,8.06 µM
15,C=CCOC(=O)C1=C(C)NC(SCC(=O)Nc2ccc(C)c(Cl)c2)=C(C#N)C1c1ccco1 (stereo unspecified),4.25 µM
16,CCCCn1c(CN2C(=O)c3ccccc3C2=O)nc2ccccc2c1=O,12.4 µM

# Same assay, conditions: HIV-1 RT RNase H enzymatic assay, inhibition, at 50 µM, stronger effect = higher value
row,SMILES,inhibition [%]
1,Cc1sc2nc(SCC(=O)NCc3ccco3)n(CCc3ccccc3)c(=O)c2c1C,82.4
2,O=C1CC(c2ccco2)Cc2nc(Nc3nc(-c4ccccc4)c4ccccc4n3)ncc21 (stereo unspecified),53.7
3,Cc1ccccc1OCc1nc(-c2ccc(NC(=O)c3ccc4c(c3)OCO4)cc2)no1,90.2
4,Nc1nnc(CSCc2ccc(F)cc2)s1,51.7
5,O=c1/c(=C/c2ccccn2)sc2nc3ccccc3n12,89.2
6,O=c1/c(=C\c2cccn2-c2ccccc2)sc2nc3ccccc3n12,92
7,c1ccc(Cc2nnc3sc(-c4ccncc4)nn23)cc1,80.4
8,Cc1ccccc1NC(=O)c1c(O)c2cccc3c2n(c1=O)CC3,84.6
9,COC(=O)N(c1ccccc1)P1(=S)OCCO1,81.9
10,CC(C)Cc1cc(C(=O)Nc2sc3c(c2C#N)CCCC3)no1,94.6
11,Cc1cc(C)n2c(=S)[nH]nc2n1,71.1
12,Cc1ccc(-n2c(N)c(C(=O)N3CCN(C)CC3)sc2=S)cc1,53.5
13,O=c1cc(CN2CCN(c3ccccc3)CC2)c2cc(O)c(-c3ccccc3)cc2o1,96.1
14,CCCc1nnc(NC(=O)CN2C(=O)c3ccccc3S2(=O)=O)s1,75.7
15,COc1cc(C2CC(=O)N3CN(c4ccccc4C)CSC3=C2C#N)cc(OC)c1OC (stereo unspecified),100
16,O=C(c1ccccc1F)N1CCN(S(=O)(=O)c2ccc(S(=O)(=O)N3CCCCC3)cc2)CC1,95.5
17,C=CCOc1ccc(CC2C(=O)N(C)C(=O)N(C)C2=O)cc1,101
18,COCCn1c(SCCN2CCOCC2)nc2c1c(=O)[nH]c(=O)n2C,40
19,CC(C)CN(C(=O)COC(=O)c1ccc2c(c1)NC(=O)CS2)C1CCS(=O)(=O)C1 (stereo unspecified),55.8
20,Nc1c(C(=O)NCc2cccnc2)sc(=S)n1-c1ccccc1,73.5
21,Cc1cccc(N2CCN(C(=O)Cn3sc4nc(C)cc(C)c4c3=O)CC2C)c1 (stereo unspecified),86
22,Nc1c(S(=O)(=O)c2cccc(Cl)c2)c2nc3ccccc3nc2n1/N=C/c1ccc(O)c(O)c1,96.3
23,C=CCn1c(SCC(=O)NC(=O)NCc2ccco2)nc2sc(C)c(C)c2c1=O,83.8
24,CCCc1cc(C(=O)Nc2sc(C)c(C)c2C(=O)OCC)no1,98
25,O=C(CSc1ncn[nH]1)c1ccccc1,84.1
26,Cc1ccc(NC(=O)CSc2nnc(-c3ccc(S(=O)(=O)N4CCCC4)cc3)o2)cc1C,88.6
27,COc1ccc(OC)c(CCNC(=O)Cn2sc3nc(C)cc(C)c3c2=O)c1,91.6

row,SMILES,inhibition [%]
1,O=c1c2ccccc2[se]n1-c1ccccc1,85.5
2,O=C(NCc1ccco1)c1cc2cc3ccc(Cl)cc3nc2o1,91.6
3,S=C(Nc1ccccn1)c1ccccn1,85.8
4,Cc1ccc(-n2c(N)c(C(=O)N3CCOCC3)sc2=S)cc1,75.9
5,COC(=O)c1ccccc1NC(=O)c1ccc2c(c1)C(=O)N(Cc1ccco1)C2=O,93.3
6,Cc1ccc(-n2c(N)c(C(N)=O)sc2=S)cc1,83.3
7,Cc1cccc(C(=O)OCC(=O)Nc2ccc(N3CCCCC3)cc2)c1O,94.7
8,CCCCC(CC)Cn1c2nc3ccccc3nc2c2c(=N)oc(C)nc21 (stereo unspecified),95.5
9,COC(=O)c1cccc(N2C(=O)C(Cl)=C(N3CCOCC3)C2=O)c1,29.2
10,CCOC(=O)c1sc(=S)n2c1[nH]c(=O)c1ccc(C(=O)OC)cc12,99.7
11,COC(=O)N(c1ccc(OC)cc1)P1(=S)OCCC(C)O1 (stereo unspecified),87.5
12,CCOc1cc(C2C(C#N)=C(N)SC(N)=C2C#N)ccc1OCCN1CCOCC1,41.5
13,Cn1ccnc1P(=S)(c1nccn1C)N1CCOCC1,60
14,c1ccc2c(c1)OCC(c1nnc3sc(-c4ccc5c(c4)OCO5)nn13)O2 (stereo unspecified),97.2
15,S=C(c1ccc(Cl)cc1)N1CCOCC1,73.5
16,COc1cc(C(=O)Nc2oc(-c3ccccc3)c(-c3ccccc3)c2C#N)cc(OC)c1OC,94
17,Cc1cc(-c2nn3c(-c4ccccc4)nnc3s2)c2ccccc2n1,94.7
18,CCOc1ccccc1N1CSC2=C(C#N)C(c3c(OC)ccc4ccccc34)CC(=O)N2C1 (stereo unspecified),92
19,c1ccc(Cc2nn3c(COc4ccccc4)nnc3s2)cc1,86.8
20,O=c1c(O)c(-c2ccc(O)cc2O)oc2cc(O)cc(O)c12,92.8
21,CCCCn1c(SCC(=O)OCC)nc2c1c(=O)[nH]c(=O)n2C,55.7
22,COc1ccc2[nH]c(=O)c(CN(C3CCCCC3)C(c3nnnn3Cc3ccco3)C(C)C)cc2c1 (stereo unspecified),88.5
23,CCc1ccccc1N1CSC2=C(C#N)C(c3ccccc3F)CC(=O)N2C1 (stereo unspecified),98.5
24,c1ccc2c(c1)ncn2Cc1nnc2sc(-c3ccc4c(c3)OCO4)nn12,93
25,Cc1ccc(-c2cc(C(F)F)n3ncc(C(=O)NCc4ccco4)c3n2)cc1,93
26,O=C(c1ccc2c3c(cccc13)C(=O)N(O)C2=O)N1CCCCC1,91.7
27,CSc1ccc(C2C(C#N)=C(N)Oc3c2ccc(=O)c2c(C)oc(C)c32)cc1 (stereo unspecified),77.4

row,SMILES,inhibition [%]
1,COc1cc(OC)c(C2CC(=O)N3CN(c4ccccc4C)CSC3=C2C#N)cc1OC (stereo unspecified),97.9
2,CC(C)OC(=O)CSc1nnc(-c2ccc(C(C)(C)C)cc2)n1N,59.5
3,CCN1CCN(c2nc(C)nc3c2sc(=S)n3C)CC1,76.3
4,CCCSc1nc2c(cnn2-c2ccc(Cl)cc2)c(=O)[nH]1,92.8
5,CCCCCCNC(=O)c1c(N)n(/N=C/c2ccco2)c2nc3ccccc3nc12,98.3
6,COc1ccc(-c2nsc(SCC(=O)Nc3cc(C)on3)n2)cc1,96.6
7,O=C(O)c1ccc2c(c1)NC(=O)C(N1CCCC1)S2 (stereo unspecified),75.8
8,COC(=O)c1ccc2c(c1)N(Cc1nc(-c3cccc(C)c3)oc1C)C(=O)C1CCCN21 (stereo unspecified),78.1
9,CC(C)(C)c1ccc(-c2nnc3sc(-c4ccncc4)nn23)cc1,96.3
10,Cc1oc(-c2ccc(Cl)cc2)cc1-c1nn2c(-c3ccoc3C)nnc2s1,78.4
11,CCn1cc(C(=O)NCc2ccco2)c(=O)c2cc(S(=O)(=O)N3CCc4ccccc4C3)ccc21,76.8
12,Cc1ccc(-c2cc(C(=O)NC3=NCCS3)c3cc(Br)ccc3n2)o1,92.4
13,c1ccc(N2CCN(c3nc4cc5c(cc4s3)OCO5)CC2)cc1,97.6
14,COc1cc(-c2nn3c(Cc4ccccc4)nnc3s2)cc(OC)c1OC,86
15,COc1ccc(Cn2nnnc2C(c2cccnc2)N2CCN(c3ccc(O)cc3)CC2)cc1 (stereo unspecified),43
16,CC(C)Sc1nc(-c2cccs2)nc2c1c(=O)n(C)c(=O)n2C,98.9
17,CCCCCCn1c(SCC(=O)OC)nc2c1c(=O)[nH]c(=O)n2C,79.6
18,CC(C)c1nnc(NC(=O)c2c(O)c3cccc4c3n(c2=O)CCC4)s1,64.9
19,O=C1c2sc3nc4ccccc4n3c2C(=O)N1c1ccccc1Cl,98.9
20,Cc1ccccc1NC(=O)CSc1nc2c(c(-c3ccco3)c1C#N)CCCC2,97.2
21,C=CCc1c(C)[nH]c(=S)c(C#N)c1C,67.2
22,c1ccc(-n2ncc3c2ncn2nc(-c4ccco4)nc32)cc1,89.8
23,COc1ccc(N2CCN(Cc3cc(=O)oc4cc5c(cc34)CCCC5)CC2)cc1,88.8
24,COc1ccc(OC)c(S(=O)(=O)Nc2ccc(O)c(Sc3ncn[nH]3)c2)c1,89.7
25,CN1CCN(C2=C(Cl)C(=O)N(c3ccc(Cl)c(Cl)c3)C2=O)CC1,61.9
26,CCOC(=O)c1sc(NC(=O)CSc2nnc(Cc3ccccc3)o2)c(C#N)c1C,98.3
27,O=S(=O)(/N=S1/CC=CCN1S(=O)(=O)c1ccccc1)c1ccccc1 (stereo unspecified),69

row,SMILES,inhibition [%]
1,COC(=O)c1ccccc1S(=O)(=O)N(Cc1cc2cc3c(cc2[nH]c1=O)OCO3)C1CCCCC1,90.3
2,C=CCSc1nc2c(c(=O)[nH]c(=O)n2C)n1CC,72.8
3,COc1cccc(OC)c1-c1nn2c(-c3cc(-c4ccccc4)n[nH]3)nnc2s1,63.5
4,COc1ccc(-n2nc3cc(C)c(NC(=O)CC(C)C)cc3n2)cc1,93.4
5,CC(=O)c1cccc(NC(=O)c2cc(-c3ccc(C)cc3)on2)c1,95.8
6,C=CCOC(=O)C1=C(C)NC(SCC(=O)Nc2ccc(C)c(Cl)c2)=C(C#N)C1c1ccco1 (stereo unspecified),98.7
7,Cc1cccc(N2CSC3=C(C#N)C(c4ccc(C)o4)CC(=O)N3C2)c1 (stereo unspecified),100
8,CCCCn1c(CN2C(=O)c3ccccc3C2=O)nc2ccccc2c1=O,98
9,CCc1ccc(NC(=O)CSc2nc3cc(C(=O)OC)ccc3c(=O)n2Cc2ccco2)cc1,94.7
10,Cc1cc(C)c2c(=O)n(CC(=O)NCCCN3CCOCC3)sc2n1,80.5
11,Cc1cc(NC(=O)CSc2nc(C3CC3)nc3sc4c(c23)CCC(C)C4)no1 (stereo unspecified),94.1
12,Cc1cccc(Nc2n[nH]c(=S)s2)c1C,96.9
13,Fc1ccc(-c2ccc(-c3nn4c(-c5ccco5)nnc4s3)o2)cc1,88
14,Cc1nc(C)c(C(=O)Nc2nc3c(C)cccc3s2)o1,100
15,CCC1CCCCN1S(=O)(=O)c1ccc(S(=O)(=O)N2CCN(S(=O)(=O)CC)CC2)cc1 (stereo unspecified),93
16,c1ccc(Cc2nn3c(Cn4nnc5ccccc54)nnc3s2)cc1,96.1
17,CCOC(=O)c1c(NC(=O)c2ccc(-n3cnnn3)cc2)sc2c1CCCC2,88.3
18,O=C(NCCc1ccccc1)c1c(O)c2cccc3c2n(c1=O)CC3,67.7
19,CCOc1ccc(S(=O)(=O)Nc2cc(Sc3ncn[nH]3)c3oc(=O)sc3c2)cc1,94.6
20,N#Cc1c(NC(=O)CN2CCN(S(=O)(=O)c3ccc4c(c3)OCCO4)CC2)sc2c1CCC2,81.9
21,Cc1sc2nc(C(C)Nc3ccccc3N3CCOCC3)[nH]c(=O)c2c1C (stereo unspecified),66.5
22,Cc1cccc(-n2c(N)c(C(=O)N3CCN(C)CC3)sc2=S)c1,41.7
23,COc1cccc(OCC(=O)Nc2c(C(=O)Nc3ccc(OC)cc3OC)oc3ccccc23)c1,88.5
24,Nc1sc2c(c1C(=O)NC1CCS(=O)(=O)C1)CCC2 (stereo unspecified),74.5
